According to patent US9376391B2, “Difluoromethyl-nicotinic-tetrahydronaphthyl carboxamides as fungicides” (BAYER CROPSCIENCE AKTIENGESELLSCHAFT, priority 2012, dated 2016):

Tests used:
[1] = tested on: Uromyces appendiculatus; experiment: In vivo preventive test on Uromyces appendiculatus (bean rust); details: preventive spray, bean plants, grading 11 days after contamination
Description: In Vivo Preventive Test on Uromyces appendiculatus (Bean Rust) […] Bean plants (“Saxa” variety), sown in starter cups on a 50/50 peat soil-pozzolana substrate and grown at 24° C., are treated at the 2-leaf stage (9 cm height) by spraying with the active ingredient prepared as described above. Plants, used as controls, are treated with the mixture of acetone/tween/DMSO/water not containing the active material. After 24 hours, the plants are contaminated by spraying the leaves with an aqueous suspension of Uromyces appendiculatus spores (150 000 spores per ml). The spores are collected from infected plants and are suspended in water containing 2.5 ml/1 of Tween 80 at 10%. The contaminated bean plants are incubated for 24 hours at 20° C. and at 100% relative humidity, and then for 10 days at 20° C. and at 70-80% relative humidity. Grading (% of efficacy) is carried out 11 days after the contamination, in comparison with the control plants.

[2] = tested on: Puccinia recondita; experiment: In vivo preventive test on Puccinia recondita (brown rust on wheat); details: wheat, spray, graded 12 days after contamination vs control plants
Description: In Vivo Preventive Test on Puccinia recondita (Brown Rust on Wheat) […] Wheat plants (“Scipion” variety), sown in starter cups on a 50/50 peat soil-pozzolana substrate and grown at 22° C., are treated at the 1-leaf stage (10 cm height) by spraying with the active ingredient prepared as described above. Plants, used as controls, are treated with the mixture of acetone/tween/DMSO/water not containing the active material. After 24 hours, the plants are contaminated by spraying the leaves with an aqueous suspension of Puccinia recondita spores (100 000 spores per ml). The spores are collected from an infected plant and are suspended in water containing 2.5 ml/1 of Tween 80 at 10%. The contaminated wheat plants are incubated for 24 hours at 20° C. and at 100% relative humidity, and then for 10 days at 20° C. and at 70-80% relative humidity. Grading (% of efficacy) is carried out 12 days after the contamination, in comparison with the control plants.

[3] = log P by HPLC on reversed phase columns (EEC directive 79/831 Annex V.A8); format: physicochemical; details: HPLC/LC-MS at pH 2.7, 0.1% formic acid in water / acetonitrile, gradient 10% to 95%
[4] = Table 2, amines of formula (III-a)

Row | Structure (SMILES) | logP^[a] ([3]; Table 1, formula (I)) | Eff. % ([2]; dose 500 ppm) [%] | further results
1 | CCC1(C)CC(C)c2c(NC(=O)c3ccc(Cl)nc3C(F)F)cccc21 (mixture of isomers) [Example 83] | 4.36^[a] |  | Eff. % ([1]; 100 ppm): 72%; Eff. % ([2]; dose 100 ppm): 83%
2 | CC1CC(C(C)(C)C)c2cccc(NC(=O)c3cccnc3C(F)F)c21 (mixture of isomers) [Example 93] | 3.94^[a] |  | 
3 | CC1CC(C)(C)c2cccc(NC(=O)c3ccc(Cl)nc3C(F)F)c21 (racemic) [Example 18] | 3.99^[a] | 89 | 
4 | CC1OC(C)(C)c2cccc(NC(=O)c3ccc(Cl)nc3C(F)F)c21 (racemic) [Example 24] | 2.77^[a] | 89 | Eff. % ([1]; 500 ppm): 100%
5 | CC(C)CC1CCc2c(NC(=O)c3cccnc3C(F)F)cccc21 (racemic) [Example 41] | 3.94^[a] | 98 | Eff. % ([1]; 500 ppm): 100%
6 | Cc1cnc(C(F)F)c(C(=O)Nc2cccc3c2CC(C(C)C)C3(C)C)c1 (racemic) [Example 44] |  | 83 | Eff. % ([1]; 500 ppm): 93%
7 | CC(C)C1Cc2c(NC(=O)c3ccc(Cl)nc3C(F)F)cccc2C1(C)C (racemic) [Example 45] | 4.77^[a] | 89 | Eff. % ([1]; 500 ppm): 88%
8 | CCON=C1CC(C)c2c(NC(=O)c3cc(C)cnc3C(F)F)cccc21 (racemic) [Example 50] | 2.99^[a] | 94 | Eff. % ([1]; 500 ppm): 100%
9 | CCCCON=C1CC(C)c2c(NC(=O)c3cc(C)cnc3C(F)F)cccc21 (racemic) [Example 53] | 3.46^[a] |  | 
10 | Cc1cnc(C(F)F)c(C(=O)Nc2cccc3c2C(C)CC32CC2)c1 (racemic) [Example 54] | 3.31^[a] |  | 
11 | CC1CC(C)(C)c2cccc(NC(=O)c3cc(Cl)cnc3C(F)F)c21 (racemic) [Example 55] | 4.06^[a] | 72 | 
12 | CC1CC2(CC2)c2cccc(NC(=O)c3ccc(Cl)nc3C(F)F)c21 (racemic) [Example 58] | 3.73^[a] | 81 | Eff. % ([1]; 500 ppm): 95%
13 | Cc1cnc(C(F)F)c(C(=S)Nc2cccc3c2C(C)CC32CC2)c1 (racemic) [Example 68] | 3.68^[a] |  | Eff. % ([2]; dose 100 ppm): 100%
14 | CCC1OC(CC)(CC)c2cccc(NC(=O)c3cc(C)cnc3C(F)F)c21 (racemic) [Example 72] | 3.52^[a] |  | 
15 | CCC1OC(C)(C)c2cccc(NC(=O)c3cc(C)cnc3C(F)F)c21 (racemic) [Example 73] | 2.64^[a] |  | Eff. % ([2]; dose 100 ppm): 78%
16 | CCC1OC(C)(C)c2cccc(NC(=O)c3ccc(Cl)nc3C(F)F)c21 (racemic) [Example 74] | 3.09^[a] |  | Eff. % ([2]; dose 100 ppm): 72%
17 | Cc1cnc(C(F)F)c(C(=O)Nc2cccc3c2C(C(C)C)OC3(C)C)c1 (racemic) [Example 75] | 3.00^[a] |  | 
18 | CON=C1CCc2c(NC(=O)c3cccnc3C(F)F)cccc21 [Example 5] | 2.15^[a] |  | 
19 | CCON=C1CCc2c(NC(=O)c3cccnc3C(F)F)cccc21 [Example 8] | 2.54^[a] | 78 | 
20 | CC1CC(C)(C)c2c(Cl)ccc(NC(=O)c3cccnc3C(F)F)c21 (stereo not drawn) [Example 16] | 3.73^[a] |  | 
21 | CC1(C)OCc2c(NC(=O)c3cccnc3C(F)F)cccc21 [Example 17] | 2.01^[a] | 100 | Eff. % ([1]; 500 ppm): 100%
22 | CC1CC(C)(C)c2c(F)ccc(NC(=O)c3ccc(Cl)nc3C(F)F)c21 (stereo not drawn) [Example 19] | 4.09^[a] | 100 | Eff. % ([1]; 500 ppm): 79%
23 | Cc1cnc(C(F)F)c(C(=O)Nc2cccc3c2C(C)CC3(C)C)c1 (stereo not drawn) [Example 21] | 3.55^[a] | 72 | Eff. % ([1]; 500 ppm): 88%
24 | Cc1cnc(C(F)F)c(C(=O)Nc2cccc3c2C(C)OC3(C)C)c1 (stereo not drawn) [Example 22] | 2.37^[a] | 83 | 
25 | CCC1(CC)OC(C)c2c(NC(=O)c3cc(C)cnc3C(F)F)cccc21 (stereo not drawn) [Example 26] | 3.15^[a] |  | 
26 | CC1CC(C)(C)c2cccc(NC(=O)c3c(C(F)F)ccnc3C(F)F)c21 (stereo not drawn) [Example 28] | 3.79^[a] |  | 

Row | Structure (SMILES) | logP^[a] ([3]; Table 1, formula (I)) | Eff. % ([2]; dose 500 ppm) [%] | further results
27 | CON=C1CC(C)c2c(NC(=O)c3cc(C)cnc3C(F)F)cccc21 (stereo not drawn) [Example 29] | 2.61^[a] |  | 
28 | Cc1cnc(C(F)F)c(C(=O)Nc2cccc3c2C(C)C(C)C3(C)C)c1 (stereo not drawn) [Example 35] | 3.79^[a] | 93 | 
29 | Cc1cnc(C(F)F)c(C(=O)Nc2cccc3c2CC(C)(C)C3)c1 [Example 48] | 3.35^[a] |  | 
30 | CCC1(CC)Cc2c(NC(=O)c3cc(C)cnc3C(F)F)cccc2C1C (stereo not drawn) [Example 61] | 4.39^[a] | 78 | 
31 | Cc1cnc(C(F)F)c(C(=O)Nc2cccc3c2CC(C)(C)C3C)c1 (stereo not drawn) [Example 63] | 3.65^[a] | 83 | 
32 | CC(C)C1Cc2c(NC(=S)c3ccc(Cl)nc3C(F)F)cccc2C1(C)C (stereo not drawn) [Example 66] | 5.11^[a] |  | Eff. % ([1]; 100 ppm): 85%; Eff. % ([2]; dose 100 ppm): 98%
33 | Cc1cnc(C(F)F)c(C(=S)Nc2cccc3c2CC(C(C)C)C3(C)C)c1 (stereo not drawn) [Example 67] | 4.74^[a] |  | Eff. % ([1]; 100 ppm): 100%; Eff. % ([2]; dose 100 ppm): 89%
34 | Cc1cnc(C(F)F)c(C(=O)Nc2cccc3c2C(C)C(C)(C)C3)c1 (stereo not drawn) [Example 86] | 3.59^[a] |  | 
35 | CC1c2c(cccc2NC(=O)c2ccc(Cl)nc2C(F)F)CC1(C)C (stereo not drawn) [Example 87] | 3.96^[a] |  | 
36 | CCCC1CC(C)c2c(NC(=O)c3cccnc3C(F)F)cccc21 (stereo not drawn) [Example 89] | 3.79^[a] |  | 
37 | CC1(C)CCc2c(NC(=O)c3cccnc3C(F)F)cccc21 [Example 92] | 3.08^[a] |  | 
38 | CC1(C)CC(C(F)F)c2c(NC(=O)c3cccnc3C(F)F)cccc21 (stereo not drawn) [Example 94] | 3.15^[a] |  | 
39 | CC(C)(C)CC1CC(C)(C)c2cccc(NC(=O)c3cccnc3C(F)F)c21 (stereo not drawn) [Example 95] | 4.54^[a] |  | 
40 | CC1(C)CC(C(Cl)Cl)c2c(NC(=O)c3cccnc3C(F)F)cccc21 (stereo not drawn) [Example 96] | 3.97^[a] |  | 
41 | O=C(Nc1cccc2c1C(=C(Cl)Cl)CC2)c1cccnc1C(F)F [Example 97] | 2.96^[a] |  | 
42 | CC1CC(=CCl)c2cccc(NC(=O)c3cccnc3C(F)F)c21 (stereo not drawn) [Example 98] | 3.71^[a] |  | 
43 | CC1CC(=C(Cl)Cl)c2cccc(NC(=O)c3cccnc3C(F)F)c21 (stereo not drawn) [Example 99] | 3.13^[a] |  | 
44 | CC1CC(C)(C)c2ccc(F)c(NC(=O)c3cccnc3C(F)F)c21 (stereo not drawn) [Example 100] | 3.26^[a] |  | 
45 | Cl.Nc1cccc2c1C(=C(Cl)Cl)CC2 [III-a-3] |  |  | logP^[a] [3, 4]: 3.42^[a]
46 | CC1CC(=C(Cl)Cl)c2cccc(N)c21.Cl (stereo not drawn) [III-a-4] |  |  | logP^[a] [3, 4]: 3.60^[a]
47 | CC(C)(C)CC1CC(C)(C)c2cccc(N)c21 (stereo not drawn) [III-a-6] |  |  | logP^[a] [3, 4]: 4.98^[a]
48 | CC1(C)CC(C(Cl)Cl)c2c(N)cccc21 (stereo not drawn) [III-a-7] |  |  | logP^[a] [3, 4]: 4.39^[a]
49 | CC(C)(C)CC1CCc2cccc(N)c21.Cl (stereo not drawn) [III-a-8] |  |  | logP^[a] [3, 4]: 4.04^[a]
50 | CC1(C)CC(C(F)F)c2c(N)cccc21 (stereo not drawn) [III-a-9] |  |  | logP^[a] [3, 4]: 2.75^[a]
51 | CC1CC(C)(C)c2ccc(F)c(N)c21 (stereo not drawn) [III-a-10] |  |  | logP^[a] [3, 4]: 3.71^[a]
